One assay concerns rape. Briefly: Preemergent control of plant species. It counts as in vivo, Brassica napus. The following applies: Brassica napus, pre-emergence, 336 h; 0.25 lb/acre; read-out: percent preemergent control. The procedure, abridged: (§1)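 Seeds sown in agricultural soil in greenhouse beds, then aqueous-emulsion compositions applied uniformly to the bed surface at listed rates. Beds kept two weeks under greenhouse growth conditions with watering. Control expressed as growth reduction versus water-treated beds of the same species.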

The next assay deals with soybean. In words: Preemergent control of plant species. It counts as in vivo, Glycine max. To be noted: Glycine max, pre-emergence, 336 h; 0.25 lb/acre; read-out: percent preemergent control. The procedure, abridged: as §1
For assay [1], the system named is nitrification of ammonium nitrogen. In words: Suppression of nitrification of ammonium nitrogen in soil. To be noted: 27° C. The procedure, abridged: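 Soil (20 g) moistened to its 1/3 bar tension value, mixed with test chemical and incubated sealed for two weeks at 27° C. Nitrate extracted with ammonium sulfate solution and measured by nitrate-specific ion electrode; value given as % NH4-N remaining.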

The subject of another assay is wild oats. In words: Preemergent control of plant species. Type of assay: in vivo. To be noted: Avena fatua, pre-emergence, 336 h; 0.25 lb/acre; read-out: percent preemergent control. The procedure, abridged: as §1
In another assay the test system is sorghum. Briefly: Preemergent control of plant species. Type of assay: in vivo, Sorghum vulgare. To be noted: Sorghum, pre-emergence, 336 h; 0.25 lb/acre; read-out: percent preemergent control. A digest of the protocol:
as §1

Another assay relates to barnyardgrass. Briefly: Preemergent control of plant species. Type of assay: in vivo, Echinochloa crusgalli. The following applies: Echinochloa crus-galli, pre-emergence, 336 h; 0.25 lb/acre; read-out: percent preemergent control. The procedure, abridged: as §1
Another assay deals with wheat. Briefly: Preemergent control of plant species. Type of assay: in vivo, Triticum aestivum. To be noted: Triticum aestivum, pre-emergence, 336 h; 0.25 lb/acre; read-out: percent preemergent control. A digest of the protocol:
as §1

A further assay has as its system yellow nutsedge. In words: Preemergent control of plant species. Type of assay: in vivo, Cyperus esculentus. To be noted: Cyperus, pre-emergence, 336 h; 0.25 lb/acre; read-out: percent preemergent control. The procedure, abridged:
as §1

A further assay relates to yellow foxtail. In words: Preemergent control of plant species. Type of assay: in vivo, Setaria lutescens. To be noted: Setaria, pre-emergence, 336 h; 0.25 lb/acre; read-out: percent preemergent control. The procedure, abridged: as §1
The next assay deals with johnson grass. Briefly: Preemergent control of plant species. It counts as in vivo, Sorghum halepense. The following applies: Sorghum halepense, pre-emergence, 336 h; 0.25 lb/acre; read-out: percent preemergent control. The procedure, abridged: as §1
In the next assay the test system is velvetleaf. In words: Preemergent control of plant species. Type of assay: in vivo, Abutilon theophrasti. The following applies: Abutilon theophrasti, pre-emergence, 336 h; 0.25 lb/acre; read-out: percent preemergent control. The procedure, abridged: as §1
The subject of a further assay is corn. Briefly: Preemergent control of plant species. It counts as in vivo, Zea mays. To be noted: Zea mays, pre-emergence, 336 h; 0.25 lb/acre; read-out: percent preemergent control. A digest of the protocol: as §1
Another assay deals with sugar beet. Briefly: Preemergent control of plant species. It counts as in vivo, Beta saccharifera. The following applies: Beta vulgaris, pre-emergence, 336 h; 0.25 lb/acre; read-out: percent preemergent control. The procedure, abridged:
as §1

The subject of a further assay is cotton. In words: Preemergent control of plant species. It counts as in vivo, Gossypium spp. The following applies: Gossypium hirsutum, pre-emergence, 336 h; 0.25 lb/acre; read-out: percent preemergent control. A digest of the protocol: as §1
The next assay deals with annual morning glory. In words: Preemergent control of plant species. Type of assay: in vivo, Ipomoea spp. To be noted: Ipomoea, pre-emergence, 336 h; 0.25 lb/acre; read-out: percent preemergent control. The procedure, abridged: as §1
Another assay relates to rice. In words: Preemergent control of plant species. It counts as in vivo, Oryza sativa. To be noted: Oryza sativa, pre-emergence, 336 h; 0.25 lb/acre; read-out: percent preemergent control. A digest of the protocol:
as §1

In another assay the test system is jimsonweed. Briefly: Preemergent control of plant species. It counts as in vivo, Datura stramonium. The following applies: Datura stramonium, pre-emergence, 336 h; 0.25 lb/acre; read-out: percent preemergent control. A digest of the protocol:
as §1

Molecules are shown by their SMILES.

Consider `C=CCOC(=O)c1cccc(C)c1NS(=O)(=O)c1nc2nc(C)cc(C)n2n1` [Compound 76], for which the plant injury at 280.212 g/ha in the assay with rape amounted to 100%; with soybean, 95%; with sorghum, 90%; in the assay on wheat it was 100%; in the assay on corn, 100%; in the assay with sugar beet, 100%. The plant injury at 280.212 g/ha in the assay with cotton was 60%; in the assay with rice it was 70%. The “% NH4-N Remaining After 2 Weeks Incubation” value was 34% in assay [1] (0.06 ppm), 52% in [1] (0.25 ppm), 74% in assay [1] (1 ppm) and 86% in [1] (4 ppm). The pest or weed control at 280.212 g/ha with wild oats is 90%; in the assay with barnyardgrass, 70%; with yellow nutsedge, 100%; in the assay with yellow foxtail, 90%; in the assay on johnson grass, 80%; with velvetleaf it was 100%. Besides, the pest or weed control at 280.212 g/ha in the assay on annual morning glory amounted to 90%; in the assay on jimsonweed, 100%.
Consider `CC(C)=NOC(=O)c1cccc(C)c1NS(=O)(=O)c1nc2nc(C)cc(C)n2n1` [Compound 78], for which the plant injury at 280.212 g/ha is 100% in the assay with rape; 30% in the assay on soybean; 0% in the assay with sorghum; 40% in the assay with wheat; 10% in the assay on corn; 70% with sugar beet. Further, the plant injury at 280.212 g/ha turned out to be 0% in the assay on cotton and 40% in the assay on rice. In addition, the “% NH4-N Remaining After 2 Weeks Incubation” value in assay [1] (0.06 ppm) is on record as 74%; in [1] (0.25 ppm) it was 32%; in assay [1] (1 ppm), 53%; in [1] (4 ppm), 72%. Moreover, the pest or weed control at 280.212 g/ha was determined as 30% in the assay on wild oats; 20% in the assay on barnyardgrass; 50% with yellow nutsedge; 20% with yellow foxtail; 0% in the assay with johnson grass; 30% in the assay on velvetleaf. The pest or weed control at 280.212 g/ha in the assay on annual morning glory and with jimsonweed was 0% in each case.
Consider `COc1ccn2nc(S(=O)(=O)Nc3c(Cl)cccc3Cl)nc2n1` [Compound 208], for which the plant injury at 280.212 g/ha amounted to 100% with rape; 45% in the assay with soybean; 30% with sorghum; 0% with wheat; 0% in the assay on corn; 100% in the assay on sugar beet. In addition, the results for the plant injury at 280.212 g/ha in the assay with cotton and in the assay on rice were 100% and 0%, respectively. Further, the “% NH4-N Remaining After 2 Weeks Incubation” value stood at 38% in assay [1] (0.06 ppm), 38% in assay [1] (0.25 ppm), 42% in assay [1] (1 ppm) and 37% in [1] (4 ppm). For the same compound, the pest or weed control at 280.212 g/ha in the assay with wild oats worked out at 0%; in the assay on barnyardgrass, 0%; in the assay with yellow nutsedge, 60%; with yellow foxtail, 0%; with johnson grass, 0%; with velvetleaf it was 90%. The pest or weed control at 280.212 g/ha in the assay on annual morning glory is 40%; in the assay on jimsonweed, 90%.
`CC=CC(=O)N(c1c(F)cccc1F)S(=O)(=O)c1nc2nc(C)ccn2n1` [Compound 288]: the plant injury at 280.212 g/ha in the assay with rape was 100%; in the assay on soybean it was 40%; in the assay on sorghum it was 100%; in the assay with wheat, 60%; in the assay on corn, 80%; in the assay on sugar beet, 100%. Moreover, the plant injury at 280.212 g/ha with cotton and in the assay on rice was 100% in each case. For the same compound, the pest or weed control at 280.212 g/ha in the assay on wild oats turned out to be 90%; in the assay with barnyardgrass it was 100%; in the assay on yellow nutsedge, 100%; in the assay on yellow foxtail, 100%; in the assay with johnson grass, 100%; with velvetleaf it was 100%. In addition, the pest or weed control at 280.212 g/ha in the assay with annual morning glory and in the assay on jimsonweed was 100% each time.
With `Cc1ccn2nc(S(=O)(=O)N(C(=O)c3ccccc3)c3c(F)cccc3F)nc2n1` [Compound 290], the plant injury at 280.212 g/ha in the assay with rape was 100%; in the assay with soybean, 70%; in the assay with sorghum it was 100%; in the assay on wheat, 95%; in the assay on corn it was 90%; in the assay on sugar beet it was 100%. For the same compound, the plant injury at 280.212 g/ha in the assay on cotton and with rice was 100% in each case. Besides, the pest or weed control at 280.212 g/ha with wild oats was determined as 70%; in the assay with barnyardgrass, 100%; with yellow nutsedge, 80%; in the assay on yellow foxtail, 100%; with johnson grass, 100%; in the assay with velvetleaf, 100%. Further, the pest or weed control at 280.212 g/ha with annual morning glory and in the assay with jimsonweed was 100% in each case.
Turning to `Cc1ccn2nc(S(=O)(=O)N(C(=O)C3CCCCC3)c3c(F)cccc3F)nc2n1` [Compound 291], the plant injury at 280.212 g/ha in the assay with rape amounted to 100%; in the assay with soybean, 20%; in the assay with sorghum it was 100%; in the assay with wheat, 100%; in the assay on corn, 55%; with sugar beet, 100%. For the same compound, the plant injury at 280.212 g/ha in the assay with cotton and with rice was 100% each time. Further, the pest or weed control at 280.212 g/ha with wild oats turned out to be 70%; in the assay with barnyardgrass, 100%; in the assay on yellow nutsedge, 100%; with yellow foxtail it was 100%; in the assay with johnson grass, 100%; in the assay on velvetleaf it was 100%. The values for the pest or weed control at 280.212 g/ha in the assay with annual morning glory and in the assay with jimsonweed were 90% and 100%, respectively.
Turning to `Cc1ccn2nc(S(=O)(=O)N(C(=O)C=Cc3ccccc3)c3c(F)cccc3F)nc2n1` [Compound 293], the plant injury at 280.212 g/ha with rape came to 100%; in the assay on soybean it was 10%; in the assay with sorghum, 100%; with wheat it was 60%; with corn it was 60%; in the assay with sugar beet, 100%. In addition, the figures for the plant injury at 280.212 g/ha in the assay with cotton and in the assay on rice were 100% and 90%, respectively. The pest or weed control at 280.212 g/ha in the assay with wild oats worked out at 95%; in the assay on barnyardgrass, 100%; in the assay with yellow nutsedge, 100%; in the assay with yellow foxtail, 100%; in the assay on johnson grass, 95%; in the assay on velvetleaf, 100%. Also, the pest or weed control at 280.212 g/ha in the assay on annual morning glory was 70%; in the assay on jimsonweed, 100%.
